# Source: patent US20160058751A1, “COMPOSITION AND METHOD FOR TREATING CANCER” (CELLWORKS GROUP, INC., priority 2013, published 2016)
# Read-outs that look alike come from different tables or passages of the source.
# Key:
# [1] = test system: Hep G2 cells; details: dose-related; cited from earlier work
# [2] = rats; cited from earlier work
# [3] = target: T1, ATP citrate lyase (Homo sapiens, UniProt P53396); details: cited from earlier work
# T1 sequence (P53396 1-1101): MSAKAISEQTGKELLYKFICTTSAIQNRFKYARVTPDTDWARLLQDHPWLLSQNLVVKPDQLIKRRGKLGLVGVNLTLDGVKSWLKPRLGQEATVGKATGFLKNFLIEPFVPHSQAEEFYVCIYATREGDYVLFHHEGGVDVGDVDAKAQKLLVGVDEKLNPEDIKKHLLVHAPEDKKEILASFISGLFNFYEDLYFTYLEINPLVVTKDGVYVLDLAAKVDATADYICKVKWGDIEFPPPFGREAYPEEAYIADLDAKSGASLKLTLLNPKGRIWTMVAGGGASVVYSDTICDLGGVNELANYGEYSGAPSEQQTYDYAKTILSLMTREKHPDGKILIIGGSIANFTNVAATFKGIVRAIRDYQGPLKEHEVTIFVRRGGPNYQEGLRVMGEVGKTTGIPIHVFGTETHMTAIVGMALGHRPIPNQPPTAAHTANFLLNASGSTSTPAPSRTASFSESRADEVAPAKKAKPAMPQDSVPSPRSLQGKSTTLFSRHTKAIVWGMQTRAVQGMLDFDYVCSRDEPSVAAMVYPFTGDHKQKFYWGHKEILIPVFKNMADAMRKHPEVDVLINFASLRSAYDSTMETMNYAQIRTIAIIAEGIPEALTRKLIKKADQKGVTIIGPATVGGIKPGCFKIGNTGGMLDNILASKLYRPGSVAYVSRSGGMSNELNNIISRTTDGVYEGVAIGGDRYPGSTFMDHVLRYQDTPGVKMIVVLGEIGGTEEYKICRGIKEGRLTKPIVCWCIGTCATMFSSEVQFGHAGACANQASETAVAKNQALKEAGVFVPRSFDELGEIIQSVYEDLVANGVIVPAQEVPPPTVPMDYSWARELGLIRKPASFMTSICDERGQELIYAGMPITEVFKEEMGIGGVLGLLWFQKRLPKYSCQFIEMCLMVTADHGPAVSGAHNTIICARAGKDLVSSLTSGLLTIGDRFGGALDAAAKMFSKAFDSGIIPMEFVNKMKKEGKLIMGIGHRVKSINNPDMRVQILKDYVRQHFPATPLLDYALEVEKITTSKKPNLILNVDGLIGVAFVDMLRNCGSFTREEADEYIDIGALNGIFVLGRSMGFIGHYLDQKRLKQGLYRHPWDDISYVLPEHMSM
# [4] = in vivo; cited from earlier work
# [5] = test system: A549 human lung cancer cell line; assay: CellTiter 96 Aqueous One relative growth assay; type: cell-based
# [6] = test system: H1650 human lung cancer cell line; assay: CellTiter 96 Aqueous One relative growth assay; type: cell-based
# [7] = test system: CaCo-2 human colon cancer cell line; assay: CellTiter 96 Aqueous One relative growth assay; type: cell-based; details: Sorafenib up to 5 μM, Atorvastatin up to 40 μM
# [8] = test system: SW48 human colon cancer cell line; assay: CellTiter 96 Aqueous One relative growth assay; type: cell-based
# Excerpt: The SW48 human colon cancer cell line was procured from ATCC (American Type Culture Collection, Manassas, Va.).
# [9] = cited from earlier work
# [10] = test system: HCT116 xenograft; assay: mouse xenograft model of HCT116
# [11] = test system: CAPAN1 xenograft; assay: mouse xenograft model of CAPAN1
# [12] = test system: HCT116 human colon cancer cell line; assay: CellTiter 96 Aqueous One relative growth assay
# [13] = cited from earlier work; remark: listed apart in the source
# [14] = BMS-303141 up to 20 μM, Sorafenib 3 μM and 5 μM
# [15] = Sorafenib up to 5 μM, Atorvastatin up to 40 μM
# [16] = oral 100 mg solution formulation
smiles,measurement,setting,value
"O=C(O)C[C@](O)(C[C@@H](O)CCCCCCc1ccc(Cl)cc1Cl)C(=O)O [SB-204990, (2R)-2-[(2S)-8-(2,4-dichlorophenyl)-2-hydroxyoctyl]-2-hydroxybutanedioic Acid]",inhibition of cholesterol synthesis,[1],up to 91%
same,inhibition of fatty acid synthesis,[1],≤ 82%
same,inhibition of cholesterol synthesis,[2],76%
same,inhibition of fatty acid synthesis,[2],39%
same,direct inhibition of ATP citrate-lyase,[3],does not inhibit
"CCC(C)(C)C(=O)O[C@H]1C[C@@H](C)C=C2C=C[C@H](C)[C@H](CC[C@@H]3C[C@@H](O)CC(=O)O3)[C@H]21 [Simvastatin, [(1S,3R,7S,8S,8aR)-8-[2-[(2R,4R)-4-hydroxy-6-oxooxan-2-yl]ethyl]-3,7-dimethyl-1,2,3,7,8,8a-hexahydronaphthalen-1-yl]2,2-dimethylbutanoate]",Half-life,[4],3 h
"CNC(=O)c1cc(Oc2ccc(NC(=O)Nc3ccc(Cl)c(C(F)(F)F)c3)cc2)ccn1 [Sorafenib, 4-[4-[[4-chloro-3-(trifluoromethyl)phenyl]carbamoylamino]phenoxy]-N-methylpyridine-2-carboxamide]",cell viability (FIG. 78),[5]; [14],negligible decrease
same,cell viability (FIG. 71),[5]; [15],negligible decrease
same,cell viability (FIG. 79),[6]; [14],minor decrease
same,cell viability (FIG. 72),[6]; [15],negligible decrease
same,cell viability (FIG. 74),[7],negligible effect
same,cell viability (FIG. 81),[8]; [14],minimal decrease
same,cell viability (FIG. 75),"[8]; Sorafenib up to 5 μM, Atorvastatin up to 10 μM",negligible effect
same,bioavailability reduced by,[9]; high-fat meal compared to fasted state,about 29%
same,Half-life,[9]; in vivo,25 to 48 h
same,dose excreted in feces,[9]; [16],77%
same,dose excreted in urine as glucuronidated metabolites,[9]; [16],19%
same,dose recovered,"[9]; oral 100 mg solution formulation, within 14 days",96%
same,share of the circulating analytes in plasma at steady-state,[9],70-85%
same,body weight,[10],not significantly affected
same,survival (Kaplan-Meier survival curve),[10],prolonged survival rates
same,inhibition of tumor volume / tumor growth,[10]; at 19 days,16%
same,body weight,[11],not significantly affected
same,survival (Kaplan-Meier survival curve),[11],slightly prolonged survival rates
same,cell viability (FIG. 80),[12]; [14],a decrease
same,cell viability (FIG. 73),[12]; [15],insignificant decrease
"Cn1cncc1[C@@](N)(c1ccc(Cl)cc1)c1ccc2c(c1)c(-c1cccc(Cl)c1)cc(=O)n2C [Tipifamib, 6-[(R)-amino-(4-chlorophenyl)-(3-methylimidazol-4-yl)methyl]-4-(3-chlorophenyl)-1-methylquinolin-2-one]",absolute oral bioavailability,"[13]; healthy volunteers, fed conditions",34%
same,Half-life,[13]; in vivo,2 to 5 h
same,"urinary excretion of unchanged drug or its metabolites, of total dose",[13]; in vivo,13.7%
same,time to maximum plasma concentrations,[13]; oral administration,two to three
same,decrease in clearance,[13]; two-fold increase in bilirubin concentration,6.9%
same,decrease in relative growth,"[12]; Tipifamib 3 μM, Crizotinib 8 μM, alone or combined, about 66 hours",~22%
[O-][n+]1ccccc1 [pyridine N-oxide],share of the circulating analytes in plasma at steady-state,[9],9-16%
